Results as given in patent US11938143B2, “Compositions comprising 2′-deoxycytidine analogs and use thereof for the treatment of sickle cell disease, thalassemia, and cancers” (AkiraBio, Inc., priority 2021, dated 2024).

Assays:
HbF = assay: F-cells and MFI by flow cytometry in sickle erythroid progenitors; assay type: cell-based, human; conditions: 48 hours
Experimental: FIGS. 8A-8D show representative data pertaining to the induction of AB1 HbF and inhibition of DNMT1 levels. Sickle erythroid progenitors were treated with the various agents shown for 48 hours. […] Shown in the graph is the mean±SEM for n=6 replicates. […] In FIGS. 8C-8D, “UT” indicates untreated cells; “HU” indicates hydroxyurea; “DEC” indicates decitabine; and “AB1” indicates disclosed compound AB1; the concentrations are indicated above the graph below the text indicating treatment compound.
Additional studies were carried out in primary sickle erythroid progenitors were next conducted. Using a previously established two-phase culture system, (See NRF2 mediates γ-globin gene regulation and fetal hemoglobin induction in human erythroid progenitors Xingguo Zhu et al., Experimental Hematology 2019; 70:85-96, incorporated by reference herein) AB1 was evaluated in progenitors cultured from peripheral blood mononuclear cells (PBMC) isolated from sickle cell subjects, at concentrations of 3, 6, and 10 nM. […] Cell viability was assessed with Trypan blue, and markers of erythroid differentiation were assessed by flow cytometry using antibodies for CD71 and CD235a, to evaluate changes in differentiation. […]
We assessed effects of AB1 at the transcription levels by RT-qPCR analysis. […]

[1] = system: sickle erythroid progenitors; assay: Erythroid differentiation markers CD71 and CD235a by flow cytometry in sickle erythroid progenitors; assay type: cell-based, human; conditions: 48 hours
Experimental: (§1) FIGS. 6A-6B show representative data pertaining to primary sickle erythroid progenitors generated from peripheral blood mononuclear cells isolated from sickle cell patients using a two-phase liquid culture system. Cells treated for 48 hours were analyzed. […] Shown in the graph is the mean±SEM for n=6.
Additional studies were carried out in primary sickle erythroid progenitors were next conducted. Using a previously established two-phase culture system, (See NRF2 mediates γ-globin gene regulation and fetal hemoglobin induction in human erythroid progenitors Xingguo Zhu et al., Experimental Hematology 2019; 70:85-96, incorporated by reference herein) AB1 was evaluated in progenitors cultured from peripheral blood mononuclear cells (PBMC) isolated from sickle cell subjects, at concentrations of 3, 6, and 10 nM. PBMCs were isolated by Ficoll® Paque separation and cultured in IMDM supplemented with erythropoietin (2 IU), stem cell factor (10 ng/mL) and Interleukin 3 (10 ng/mL). On day seven, drug controls HU 75 μM, Dec 200 nM and AB1 (3, 6, and 10 nM) were added for 48 hours. Cell viability was assessed with Trypan blue, and markers of erythroid differentiation were assessed by flow cytometry using antibodies for CD71 and CD235a, to evaluate changes in differentiation. Proportions of F-cells and MFI were assayed by FACScan using staining with fluorescein isothiocyanate (FITC) anti-human HbF antibody (Bethyl). In our experience, primary erythroid progenitors are more sensitive to drug toxicity, so a lower dose range of AB1 was used. […] As a marker of early erythroid differentiation, CD71^+ progenitors were not affected by Dec or AB1 at any dose tested. In notable contrast, there was a 7-fold increase in CD71^+ cells mediated by HU (FIG. 6B).

[2] = system: sickle erythroid progenitors; assay: In vitro sickling of erythroid progenitors under overnight hypoxia (2% oxygen); assay type: cell-based, human; conditions: 48 hours treatment then overnight at 2% oxygen; AB1 3, 6, 10 nM; decitabine 200 nM; HU 75 μM
Experimental: FIGS. 9A-9B show representative data pertaining to various treatments and reduction of the level of sickle erythroid progenitors. After sickle progenitors were treated with the various drugs for 48 hours as indicated, and then incubated overnight in hypoxia conditions. […] In FIGS. 9A-9B, “UT” indicates untreated cells; “HU” indicates hydroxyurea; “DEC” indicates decitabine; and “AB1” indicates disclosed compound AB1; the concentrations are indicated, and concentration used is adjacent to the text indicating treatment compound.
We assessed effects of AB1 at the transcription levels by RT-qPCR analysis. […] Complementary studies at the protein levels were completed by flow cytometry and Western blot. […] To further support the notion that AB1 induces HbF expression, Western blot analysis was performed. […] It was observed that there was a dose-dependent 80% decrease in DNMT1 in sickle erythroid progenitors at the highest AB1 10 nM concentration (FIG. 8 D). […] After treatment for 48 hours, with the various drugs, the cells were incubated overnight at 2% oxygen, then fixed with formalin and the number of sickle versus non-sickle cells counted by phase contrast microscopy, a method previously published by the Pace (PI/PD) group (see Zhu, X., Li, B. & Pace, B. S. Haematologica 102, e285-e288, doi:10.3324/haematol.2016.160788 (2017)). […]

[3] = Cell viability of primary sickle erythroid progenitors by Trypan blue; assay type: cell-based; conditions: human, HU 75 μM, read-out: drop in cell viability
Experimental: as §1
Additional studies were carried out in primary sickle erythroid progenitors were next conducted. Using a previously established two-phase culture system, (See NRF2 mediates γ-globin gene regulation and fetal hemoglobin induction in human erythroid progenitors Xingguo Zhu et al., Experimental Hematology 2019; 70:85-96, incorporated by reference herein) AB1 was evaluated in progenitors cultured from peripheral blood mononuclear cells (PBMC) isolated from sickle cell subjects, at concentrations of 3, 6, and 10 nM. PBMCs were isolated by Ficoll® Paque separation and cultured in IMDM supplemented with erythropoietin (2 IU), stem cell factor (10 ng/mL) and Interleukin 3 (10 ng/mL). On day seven, drug controls HU 75 μM, Dec 200 nM and AB1 (3, 6, and 10 nM) were added for 48 hours. Cell viability was assessed with Trypan blue, and markers of erythroid differentiation were assessed by flow cytometry using antibodies for CD71 and CD235a, to evaluate changes in differentiation. […]

SMILES	F-cell levels (HbF; average of SCD patients, increase from 16%, all AB1 concentrations tested, Dec 200 nM)	CD71+ progenitors (marker of early erythroid differentiation) ([1]; Dec 200 nM, AB1 at any dose tested (3, 6, 10 nM))	level of CD235a+ cells (marker of terminal differentiation) ([1]; HU 75 μM, Dec 200 nM, AB1 3, 6, 10 nM)	decrease in sickle cells [2]	cytotoxicity at 48 h, 75 μM [3]	F-cell induction (HbF; HU 75 μM, all patient data combined)	increase in CD71+ cells ([1]; HU 75 μM)
Nc1ncn([C@H]2C[C@H](O)[C@@H](CO)O2)c(=O)n1 [Dec, 4-amino-1-(2-deoxy-b-D-erythro-pentofuranosyl)-1,3,5-triazin-2(1H)-one]	22%	not affected	increased by all drugs except Dec	80%			
NC(=O)NO [HU, hydroxyurea]				50%	40%	not observed	7 fold
